According to US6130342A, “CYP2D fluorescent assay reagents” (Gentest Corporation, priority 1999, dated 2000):
Several values for one entry are separate records, joined by “and”; a condition that tells them apart may be missing. Equal entries are not always repeated.

Assays:
CYP2D6 [1] = target: T1, CYP2D6 (Homo sapiens, UniProt P10635); assay: biochemical
Method: The substrates, compounds of Formula I, were prepared in pH 7.4 potassium phosphate buffer or acetonitrile. […] The 12 wells in a row were used for one test. Wells 1 to 8 contained serial 1:3 dilutions of the inhibitors. Wells 9 and 10 contained no inhibitor and rows 11 and 12 were blanks for background fluorescence (stop solution added before the enzyme). After substrate and inhibitor addition, the plates were prewarmed to 37° C. Incubations were initiated by the addition of prewarmed enzyme and cofactors. […] Data was exported and analyzed using an Excel spreadsheet.

[2] = tested on: other human cytochromes P450; details: Crespi et al. 1997; cited from earlier work
CYP2D6 [3] = details: Crespi et al. 1997; cited from earlier work
[4] = tested on: panel of human P450 enzymes; assay: Selectivity in a panel of cDNA-expressed P450 enzymes (dealkylation); type: biochemical; details: FIGS. 1, 2, and 3
Method: The selectivity of various P450 isoforms for dealkylation of compounds Ia, Ib and Ic was examined using a panel of commercially available human cDNA-expressed enzymes. A substrate that is selective for a single P450 isoform (substrate is catalytically turned over by a single P450 isoform) is a desirable trait in that its activity may be examined within a heterogeneous mixture of enzymes, for example, in human liver microsomes.
Example Compounds Ia, Ib and Ic. Compounds Ia, Ib and Ic were incubated as described in the examples (1) above except that the enzyme source consisted of one each of several different commercially available, baculovirus/insect cell expressed human cytochrome P450 enzymes (SUPERSOME®, GENTEST Corporation).

CYP2D6 [5] = target: T1, CYP2D6; assay: Enzyme kinetics with cDNA-expressed CYP2D6 (fluorometric); type: biochemical; set-up: purchased GENTEST Corporation P217; host or cells: baculovirus/insect cell (SUPERSOMES)
Method: (§1) The evaluation of compounds of Formula I were initially performed by measuring the kinetics of turnover using cDNA-expressed CYP2D6. Vmax and Km values are important for the optimization of the assay conditions and for setting the parameters for inhibition experiments. […] However, compounds Ib and Ic, contain the 4-trifluoromethyl group (R4) which shifts the fluorescent properties of these molecules to longer wavelengths.
(§2) Example Compound Ia. […] The substrate, compound Ia, was prepared in pH 7.4 potassium phosphate buffer (0.1 M). […] The final cofactor concentrations were 0.0082 mM NADP, 0.41 mM glucose-6-phosphate and 0.2 U/ml glucose-6-phosphate dehydrogenase. Final incubation volume was 0.2 ml. […] The activity was quantified by comparing to a standard curve of 3-[2-(N,N-diethylamino)ethyl]-7-hydroxy-4-methylcoumarin hydrochloride. Apparent Km and Vmax values were calculated by non-linear kinetics using SigmaPlot 4.0 software.
(§3) Example Compounds Ib and Ic. The following procedure applies to compounds Ib and Ic as substrates. […] The substrates, Ib and Ic, were prepared in acetonitrile. […] Final incubation volume was 0.2 ml. […] The enzyme activity was quantified by comparing to a standard curve of 3-[2-(N, N-diethyl-N-methylammonium)ethyl]-7-hydroxy-4-trifluoromethylcoumarin iodide (compound IIb) when assaying for metabolism of Ib or 3-[2-(diethylamino)ethyl]-7-hydroxy-4-trifluoromethyl coumarin (compound IIc) when assaying for metabolism of Ic. Apparent Km and Vmax values were calculated by non-linear kinetics using SigmaPlot 4.0 software.

CYP2D6 [6] = target: T1, CYP2D6; assay: CYP2D6 specificity in human liver microsomes with and without quinidine; type: biochemical; set-up: purchased GENTEST Corporation P217; host or cells: baculovirus/insect cell (SUPERSOMES); details: for pmole Product with quinidine: 5 uM quinidine; for pmole Product with quinidine / pmole Product: 5.0 uM compound I, 1.0 mg/ml HLM; for pmole Product: without quinidine
Method: Human liver microsomes (HLM) contain several drug (xenobiotic) metabolizing cytochromes P450. When HLM are used as an enzyme source, it is critical that the probe biotransformation be specifically catalyzed by the enzyme of interest.
After incubation, 100 ul of the reaction was added to 1.9 ml of 100 mM Tris (pH 9) and the fluorescence was determined with excitation at 390 nm and emission at 460 nm in a spectrofluorometer. The activity was quantitated by comparing to a standard curve of 3-[2-(diethylamino)ethyl]-7-hydroxy-4-methylcoumarin hydrochloride (Table III): […]

CYP2D6 [7] = details: Kupfer et al. 1984; cited from earlier work
[8] = substrate: CCN(CC)CCc1c(C(F)(F)F)c2ccc(OC)cc2oc1=O; assay: Enzyme kinetics with cDNA-expressed CYP2D6 (fluorometric); type: biochemical; details: cDNA-expressed human CYP2D6, 37° C., pH 7.4
Method: as §1, §2, §3

[9] = substrate: CC[N+](C)(CC)CCc1c(C(F)(F)F)c2ccc(OC)cc2oc1=O; assay: as above; type: biochemical; details: cDNA-expressed human CYP2D6, 37° C., pH 7.4
Method: as §1, §2, §3

[10] = substrate: CC[N+](C)(CC)CCc1c(C)c2ccc(OC)cc2oc1=O; assay: as above; type: biochemical; details: cDNA-expressed human CYP2D6, 37° C., pH 7.4
Method: as §1, §2, §3

[11] = substrate: CCOc1ccc2cc(C#N)c(=O)oc2c1; assay: as above; type: biochemical; details: cDNA-expressed human CYP2D6, 37° C., pH 7.4

## CCc1cccc2cc(C(O)CNC(C)(C)C)oc12 (centres unmarked) [Bufuralol]
CYP2D6 [1]
  IC50: 27 µM and 17 µM and 23.3 µM and 104 µM

## CCOc1ccc2cc(C#N)c(=O)oc2c1 [CEC, 3-cyano-7-ethoxycoumarin]
[2]
  metabolism by other human cytochromes P450: significantly metabolized by other human cytochromes P450
  specificity of substrate: poor specificity
CYP2D6 [3]
  enzymatic turnover: low enzymatic turnover

## CC[N+](C)(CC)CCc1c(C)c2ccc(OC)cc2oc1=O [Compound Ia, 3-[2-(N,N-diethyl-N-methylammonium)ethyl]-7-methoxy-4-methylcoumarin]
[4]
  catalytic selectivity for dealkylation: selective for CYP2D6
CYP2D6 [5]
  catalytic turnover: highest catalytic turnover
CYP2D6 [6]; 0 min
  pmole Product with quinidine: 0 pmol
  pmole Product: 0 pmol
CYP2D6 [6]; 5 min
  pmole Product with quinidine: 0 pmol
  pmole Product: 3.3 pmol
CYP2D6 [6]; 10 min
  pmole Product with quinidine: 0 pmol
  pmole Product: 6.3 pmol
CYP2D6 [6]; 15 min
  pmole Product with quinidine: -0.7 pmol
  pmole Product: 8.5 pmol
CYP2D6 [6]; human liver microsomes, quinidine inhibition
  measurable metabolism / CYP2D6 specificity: exclusively due to CYP2D6

## CC[N+](C)(CC)CCc1c(C(F)(F)F)c2ccc(OC)cc2oc1=O [Compound Ib, 3-[2-(N,N-diethyl-N-methylammonium)ethyl]-7-methoxy-4-trifluoromethylcoumarin iodide]
[4]
  catalytic selectivity for dealkylation: also substrates for other human P450 enzymes
CYP2D6 [5]
  catalytic turnover: lower catalytic turnover compared to compound Ia

## CCN(CC)CCc1c(C(F)(F)F)c2ccc(OC)cc2oc1=O [Compound Ic, 3-[2-(diethylamino)ethyl]-7-methoxy-4-trifluoromethylcoumarin]
[4]
  catalytic selectivity for dealkylation: also substrates for other human P450 enzymes
CYP2D6 [5]
  catalytic turnover: lower catalytic turnover compared to compound Ia

## N=C(N)N1CCc2ccccc2C1 [Debrisoquine]
CYP2D6 [1]
  IC50: 29 µM and 20 µM and 10.6 µM and 105 µM

## COc1ccc2c(c1)[C@]13CCCC[C@@H]1[C@H](C2)N(C)CC3 [Dextromethorphan]
CYP2D6 [7]
  metabolism by CYP2D6: O-demethylated by CYP2D6

## NCCC(Oc1ccc(C(F)(F)F)cc1)c1ccccc1 (centres unmarked) [Norfluoxetine]
CYP2D6 [1]
  IC50: 8.4 µM and 1.1 µM

B1: CYP2D6 (Homo sapiens) (protein)
chain: MGLEALVPLAVIVAIFLLLVDLMHRRQRWAARYPPGPLPLPGLGNLLHVDFQNTPYCFDQLRRRFGDVFSLQLAWTPVVVLNGLAAVREALVTHGEDTADRPPVPITQILGFGPRSQGVFLARYGPAWREQRRFSVSTLRNLGLGKKSLEQWVTEEAACLCAAFANHSGRPFRPNGLLDKAVSNVIASLTCGRRFEYDDPRFLRLLDLAQEGLKEESGFLREVLNAVPVLLHIPALAGKVLRFQKAFLTQLDELLTEHRMTWDPAQPPRDLTEAFLAEMEKAKGNPESSFNDENLRIVVADLFSAGMVTTSTTLAWGLLLMILHPDVQRRVQQEIDDVIGQVRRPEMGDQAHMPYTTAVIHEVQRFGDIVPLGVTHMTSRDIEVQGFRIPKGTTLITNLSSVLKDEAVWEKPFRFHPEHFLDAQGHFVKPEAFLPFSAGRRACLGEPLARMELFLFFTSLLQHFSFSVPTGQPRPSHHGVFAFLVSPSPYELCAVPR
notes: purchased GENTEST Corporation P217; host or cells: baculovirus/insect cell (SUPERSOMES)
[8]
  kcat: 0.0033 s⁻¹
[8]; other: apparent Km
  Km: 3.3 µM
[9]
  kcat: 0.00267 s⁻¹
[9]; other: apparent Km
  Km: 0.8 µM
[10]
  kcat: 0.0167 s⁻¹
[11]
  kcat: 0.000283 s⁻¹
[11]; other: apparent Km
  Km: 67 µM
